Assay [1] concerns the target T1, COX-1 (Homo sapiens, UniProt P23219). As to the kind of experiment: biochemical. It is filed as biochemical. Conditions: Table III; U937. How it is done: Compounds are tested as inhibitors of cyclooxygenase activity in whole cell cyclooxygenase assays. Both of these assays measure prostaglandin E2 synthesis in response to arachidonic acid, using a radioimmunoassay. Cells used for these assays are human osteosarcoma 143 cells (which specifically express COX-2) and human U-937 cells (which specifically express COX-1). In these assays, 100% activity is defined as the difference between prostaglandin E2 synthesis in the absence and presence of arachidonate.
U 937 cells are pelleted by centrifugation at 500×g for 5 min and washed once with phosphate-buffered saline and repelleted. Cells are resuspended in homogenization buffer consisting of 0.1 M Tris-HCl, pH 7.4, 10 mM EDTA, 2 μg/ml leupeptin, 2 μg/ml soybean trypsin inhibitor, 2 μg/ml aprotinin and 1 mM phenyl methyl sulfonyl fluoride. The cell suspension is sonicated 4 times for 10 sec and is centrifuged at 10,000×g for 10 min at 4° C. The supernatant is centrifuged at 100,000×g for 1 hr at 4 ° C. The 100,000×g microsomal pellet is resuspended in 0.1 M Tris-HCl, pH 7.4, 10 mM EDTA to approximately 7 mg protein/ml and stored at -80° C.
Microsomal preparations are thawed immediately prior to use, subjected to a brief sonication, and then diluted to a protein concentration of 125 μg/ml in 0.1 M Tris-HCl buffer, pH 7.4 containing 10 mM EDTA, 0.5 mM phenol, 1 mM reduced glutathione and 1 μM hematin. Assays are performed in duplicate in a final volume of 250 μl. Initially, 5 μd of DMSO vehicle or drug in DMSO are added to 20 μl of 0.1 M Tris-HCl buffer, pH 7.4 containing 10 mM EDTA in wells of a 96-deepwell polypropylene titre plate. 200 μl of the microsomal preparation are then added and pre-incubated for 15 min at room temperature before addition of 25 μl of […] in 0.1 M Tris-HCl and 10 mM EDTA, pH 7.4. […] Cyclooxygenase activity is defined as the difference between PGE2 levels in samples incubated in the presence of arachidonic acid and ethanol vehicle.

The target of assay [2] is T1, COX-1. As to the kind of experiment: Human whole blood assay, COX-1 (clotting-induced TxB2 production). As to conditions: Table III, read-out: COX-1 (IC50) HWB. It is filed as cell-based. From the text:
(§1) As well, platelets in whole blood contain a large amount of the COX-1 enzyme. Immediately following blood clotting, platelets are activated through a thrombin-mediated mechanism. […] Therefore, the degree of selectivity by the test compound can be determined by measuring the levels of PGE2 after LPS induction (COX-2) and TxB2 following blood clotting (COX-1) in the same assay.
B. COX-1 (Clotting-induced TxB2 production)
Fresh blood is collected into vacutainers containing no anticoagulants. Aliquots of 500 μL are immediately transferred to siliconized microcentrifuge tubes preloaded with 2 μL of either DMSO or a test compound at final concentrations varying from 10 nM to 30 μM. The tubes are vortexed and incubated at 37° C. for 1 hour to allow blood to clot. At the end of incubation, serum is obtained by centrifugation (12,000×g for 5 min.). A 100 μL aliquot of serum is mixed with 400 μL of methanol for protein precipitation.

For assay [3], the target named is T2, COX-2 (Homo sapiens, UniProt P35354).
T2 sequence (P35354 18-604): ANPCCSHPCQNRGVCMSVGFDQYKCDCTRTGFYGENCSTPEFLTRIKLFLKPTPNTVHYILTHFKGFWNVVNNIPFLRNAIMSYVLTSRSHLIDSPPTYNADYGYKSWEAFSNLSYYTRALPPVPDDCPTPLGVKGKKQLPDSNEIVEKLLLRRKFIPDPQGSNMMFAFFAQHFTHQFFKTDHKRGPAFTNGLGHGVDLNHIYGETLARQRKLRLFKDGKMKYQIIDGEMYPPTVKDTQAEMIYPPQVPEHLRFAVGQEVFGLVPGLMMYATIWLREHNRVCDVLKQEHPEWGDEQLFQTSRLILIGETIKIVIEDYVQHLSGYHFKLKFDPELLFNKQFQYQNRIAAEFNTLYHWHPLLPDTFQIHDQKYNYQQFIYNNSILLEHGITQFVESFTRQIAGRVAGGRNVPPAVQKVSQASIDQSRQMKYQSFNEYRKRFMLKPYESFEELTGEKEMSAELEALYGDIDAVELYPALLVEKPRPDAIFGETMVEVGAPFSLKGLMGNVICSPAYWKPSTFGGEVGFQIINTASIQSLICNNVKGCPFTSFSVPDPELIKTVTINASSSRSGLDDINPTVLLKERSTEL
As to the kind of experiment: biochemical. As to conditions: Table IV; purified human COX-2; read-out: COX-2 (IC50, μM) TMPD. How it is done:
Assay of the activity of purified human COX-2
The assay mixture (180 μL) contains 100 mM sodium phosphate, pH 6.5, 2 mM genapol X-100, 1 μM hematin, 1 mg/ml gelatin, 80-100 units of purified enzyme (One unit of enzyme is defined as the amount of enzyme required to produce an O.D. change of 0.001/min at 610 nm) and 4 μL of the test compound in DMSO. The mixture is pre-incubated at room temperature (22° C.) for 15 minutes prior to initiation of the enzymatic reaction by the addition of 20 μL of a sonicated solution of 1 mM arachidonic acid (AA) and 1 mM TMPD in assay buffer (without enzyme or hematin). The enzymatic activity is measured by estimation of the initial velocity of TMPD oxidation over the first 36 sec of the reaction. […] IC50 values are derived from 4-parameter least squares non-linear regression analysis of the log-dose vs % inhibition plot.

Assay [4] deals with T2, COX-2. As to the kind of experiment: cell-based. Conditions: Table IV; human whole blood, LPS-induced PGE2; read-out: COX-2 (IC50, μM) HWB.
From the text: as §1
A. COX-2 (LPS-induced PGF, production)
Fresh blood is collected in heparinized tubes by venipuncture from both male and female volunteers. The subjects have no apparent inflammatory conditions and have not taken any NSAIDs for at least 7 days prior to blood collection. Plasma is immediately obtained from a 2 mL blood aliquot to use as blank (basal levels of PGE2).

Assay [5] deals with T2, COX-2. As to the kind of experiment: cell-based. Conditions: Table IV; CHO[hCOX-2] cells, 10 μM AA. How it is done: Chinese hamster ovary (CHO) cell lines which have been stably transfected with an eukaryotic expression vector pCDNAIII containing either the human COX-1 or COX-2 cDNA's are used for the assay. These cell lines are referred to as CHO [hCOX-1] and CHO [hCOX-2], respectively. […] Cells (0.3×10^6 cells in 200 μl) are preincubated with 3 μl of the test drug or DMSO vehicle for 15 min at 37° C. […] Cells are then challenged in the presence or absence of drug with the AA/HBSS solution to yield a final concentration of 0.5 μM AA in the CHO[hCOX-1] assay and a final concentration of 10 μM AA in the CHO[hCOX-2] assay. […] The samples are centrifuged at 300×g at 4° C. for 10 min, and an aliquot of the clarified supernatant is appropriately diluted for the determination of PGE2 levels using an enzyme-linked immunoassay for PGE2 (Correlate PGE2 enzyme immunoassay kit, Assay Designs, Inc.). Cyclooxygenase activity in the absence of test compounds is determined as the difference in PGE2 levels of cells challenged with arachidonic acid versus the PGE2 levels in cells mock-challenged with ethanol vehicle. Inhibition of PGE2 synthesis by test compounds is calculated as a percentage of the activity in the presence of drug versus the activity in the positive control samples.

Another assay has as its system Rat Paw Edema. As to the kind of experiment: Rat paw edema assay (carrageenan). It is filed as in vivo, Male Sprague-Dawley rats. As to conditions: 3 h, Table IV, po. How it is done:
Male Sprague-Dawley rats (150-200 g) are fasted overnight and are given, po, either vehicle (1% methocel or 5% Tween 80) or a test compound. One hr later, a line is drawn using a permanent marker at the level above the ankle in one hind paw to define the area of the paw to be monitored. The paw volume (V0) is measured using a plethysmometer (Ugo-Basile, Italy) based on the principle of water displacement. […] The animals are sacrificed by CO2 asphyxiation and the absence or presence of stomach lesions scored. Data is compared with the vehicle-control values and percent inhibition calculated. All treatment groups are coded to eliminate observer bias.

In patent publication US5981576A, “(Methylsulfonyl)phenyl-2-(5H)-furanones as COX-2 inhibitors” (Merck Frosst Canada, Inc., priority 1998, dated 1999) one finds IC50 and ED50 data, which are given here for seven compounds.

T1 sequence (P23219 24-599): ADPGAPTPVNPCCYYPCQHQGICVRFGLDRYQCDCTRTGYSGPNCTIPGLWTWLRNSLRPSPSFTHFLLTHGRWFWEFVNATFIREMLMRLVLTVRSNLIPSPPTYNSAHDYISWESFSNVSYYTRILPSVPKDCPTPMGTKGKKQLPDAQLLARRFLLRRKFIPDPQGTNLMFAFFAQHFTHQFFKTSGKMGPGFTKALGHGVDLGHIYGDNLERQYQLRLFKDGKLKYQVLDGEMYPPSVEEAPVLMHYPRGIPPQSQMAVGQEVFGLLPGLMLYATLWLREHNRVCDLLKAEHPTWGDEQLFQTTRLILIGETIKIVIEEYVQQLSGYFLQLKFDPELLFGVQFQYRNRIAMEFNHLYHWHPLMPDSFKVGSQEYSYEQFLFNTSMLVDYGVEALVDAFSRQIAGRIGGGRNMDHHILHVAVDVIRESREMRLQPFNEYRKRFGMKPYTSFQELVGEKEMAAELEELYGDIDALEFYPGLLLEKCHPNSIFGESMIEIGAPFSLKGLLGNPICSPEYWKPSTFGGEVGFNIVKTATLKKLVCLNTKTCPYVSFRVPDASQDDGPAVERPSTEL

Regarding `CC1(C)OC(=O)C(Oc2ccc(F)c(F)c2)=C1c1ccc(S(C)(=O)=O)cc1` [Example 1, 3-(3,4-Difluorophenoxy)-5,5-dimethyl-4-(4-(methylsulfonyl)phenyl)-5H-furan-2-one], the IC50 at COX-1 [1] amounted to 0.99 µM; on COX-1 [2] it was 9.2 µM.
`CC1(C)OC(=O)C(Oc2cc(F)cc(F)c2)=C1c1ccc(S(C)(=O)=O)cc1` [Example 3, 3-(3,5-Difluorophenoxy)-5,5-dimethyl-4-(4-(methylsulfonyl)phenyl)-5H-furan-2-one]: at COX-1 [2], the IC50 was 6.1 µM.
On to `CC1(C)OC(=O)C(OC2CCCCC2)=C1c1ccc(S(C)(=O)=O)cc1` [Example 14, 3-Cyclohexyloxy-5,5-dimethyl-4-(4-(methylsulfonyl)phenyl)-5H-furan-2-one], for which the IC50 was greater than 10 µM against COX-1 [1] and 58.3 µM at COX-1 [2].
Consider `COC1(C)OC(=O)C(Oc2ccc(F)c(F)c2)=C1c1ccc(S(C)(=O)=O)cc1` (centres unmarked) [Example 24c, 3-(3,4-Difluorophenoxy)-5-methoxy-5-methyl-4-(4-(methylsulfonyl)phenyl)-5H-furan-2-one], for which the IC50 against COX-1 [1] is greater than 3 µM; at COX-1 [2], 25.3 µM.
With `CC1(C)OC(=O)C(Oc2cncc(Cl)c2)=C1c1ccc(S(C)(=O)=O)cc1` [Example 49, 3-(3-Chloro-5-pyridiloxy)-5,5-dimethyl-4-(4-(methylsulfonyl)phenyl)-5H-furan-2-one], the IC50 on COX-2 [3] amounted to 7.8 µM; on COX-2 [4], 0.61 µM; on COX-2 [5] it was 0.2 µM.
On the same counts, the results for `CC[C@@]1(C)OC(=O)C(Oc2ccc(F)cn2)=C1c1ccc(S(C)(=O)=O)cc1` [Example 162, (5R)-3-(5-Fluoro-2-pyridyloxy)-5-ethyl-5-methyl-4-(4-methylsulfonyl)-phenyl-5H-furan-2-one] are 8 µM, 0.62 µM and 0.06 µM.
In turn, `C[C@]1(CC(F)(F)F)OC(=O)C(Oc2ccc(F)cc2)=C1c1ccc(S(C)(=O)=O)cc1` [Example 166, (5R)-3-(4-fluorophenoxy)-5-methyl-4-(4-methylsulfonyl)phenyl-5-(2,2,2-trifluoroethyl)-5H-furan-2-one] gave an ED50 in the assay with Rat Paw Edema of 4.9 mg/kg.
